For the experiment, the target named is Nluc-H1R (Homo sapiens, UniProt P35367). The experiment can be described thus: NanoBRET saturation binding assay on Nluc-H1R expressing HEK293T cells. Set-up: expressed in transfected cells. To be noted: saturation binding curves, whole HEK293T cells; for pKD: non-specific with 10 μM mepyramine, mean ± SEM. An excerpt: Total and non-specific saturation binding curves from NanoBRET saturation binding assay were fitted simultaneously using eq 1: [drawing 4] 1 where Bmax is the maximal specific binding, [B] is the concentration of fluorescent ligand in nM, KD is the equilibrium dissociation constant in nM, M is the slope of the non-specific component, and C is the intercept with the Y axis.
Sequence of Nluc-H1R (P35367 whole entry): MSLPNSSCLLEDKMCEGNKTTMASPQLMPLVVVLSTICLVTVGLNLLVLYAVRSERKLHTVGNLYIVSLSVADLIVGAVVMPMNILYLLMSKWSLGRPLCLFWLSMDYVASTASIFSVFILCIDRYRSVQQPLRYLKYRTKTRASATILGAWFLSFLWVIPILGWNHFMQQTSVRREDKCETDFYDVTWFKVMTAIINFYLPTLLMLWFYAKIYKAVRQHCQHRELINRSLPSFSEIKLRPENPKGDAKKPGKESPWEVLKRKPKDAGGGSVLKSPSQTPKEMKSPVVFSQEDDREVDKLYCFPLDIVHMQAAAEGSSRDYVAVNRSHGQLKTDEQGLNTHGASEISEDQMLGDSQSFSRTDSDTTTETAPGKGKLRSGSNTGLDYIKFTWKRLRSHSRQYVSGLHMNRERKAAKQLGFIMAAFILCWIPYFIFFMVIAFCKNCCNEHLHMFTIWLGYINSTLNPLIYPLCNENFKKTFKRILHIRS

Square brackets hold non-standard residues; d marks the D form. Side chains are listed from the residue outwards. Peptide text beside a SMILES is read from it. * marks the point of attachment. X1 = O=C(COc1ccc(/C=C/C2=[N+]3C(=Cc4ccc(-c5cccs5)n4[B-]3(F)F)C=C2)cc1)*; Propanoyl(3-Pip(4-O-2-BnPh)) = O=C(CCN1CCC(Oc2ccccc2Cc2ccccc2)CC1)*; BODIPY(FL) = CC1=CC(C)=[N+]2C1=Cc1ccc(CCC(=O)*)n1[B-]2(F)F; Ahx = NCCCCCC(=O)O; βAla = NCCC(=O)O

In turn, `C[C@@H](O)[C@H](NC(=O)CCN1CCC(Oc2ccccc2Cc2ccccc2)CC1)C(=O)N[C@@H](CO)C(=O)N[C@@H](Cc1ccc(O)cc1)C(=O)NCCC(=O)N[C@@H](CCCCNC(=O)COc1ccc(/C=C/C2=[N+]3C(=Cc4ccc(-c5cccs5)n4[B-]3(F)F)C=C2)cc1)C(N)=O` [Compound 31g, (S)-2-((6S,9S,12S)-16-(4-(2-Benzylphenoxy)piperidin-1-yl)-6-(4-hydroxybenzyl)-12-((R)-1-hydroxyethyl)-9-(hydroxymethyl)-5,8,11,14-tetraoxo-4,7,10,13-tetraazahexadecanamido)-6-(2-(4-((E)-2-(5,5-difluoro-7-(thiophen-2-yl)-5H-5λ^4,6λ^4-dipyrrolo[1,2-c:2’,1’-f][1,3,2]diazaborinin-3-yl)vinyl)phenoxy)acetamido)hexanamide] ({Propanoyl(3-Pip(4-O-2-BnPh))}-TSY[βAla]K(X1)-NH2) had a Kd of 7 nM and a pKD of 8.16 ± 0.12.
For `C[C@H](NC(=O)CCN1CCC(Oc2ccccc2Cc2ccccc2)CC1)C(=O)N[C@@H](C)C(=O)N[C@@H](C)C(=O)N[C@@H](Cn1cc(COc2ccc(/C=C/C3=[N+]4C(=Cc5ccc(-c6cccs6)n5[B-]4(F)F)C=C3)cc2)nn1)C(N)=O` [Compound 22b, (S)-N-((S)-1-Amino-3-(4-((4-((E)-2-(5,5-difluoro-7-(thiophen-2-yl)-5H-5λ^4,6λ^4-dipyrrolo[1,2-c:2’,1’-f][1,3,2]diazaborinin-3-yl)vinyl)phenoxy)methyl)-1H-1,2,3-triazol-1-yl)-1-oxopropan-2-yl)-2-((S)-2-((S)-2-(3-(4-(2-benzylphenoxy)piperidin-1-yl)propanamido)propanamido)propanamido)propenamide] the same measures were 20 nM and 7.70 ± 0.05.
For `C[C@@H](O)[C@H](NC(=O)CCN1CCC(Oc2ccccc2Cc2ccccc2)CC1)C(=O)N[C@@H](CO)C(=O)N[C@@H](CC(N)=O)C(=O)NCCC(=O)N[C@@H](CCCCNC(=O)COc1ccc(/C=C/C2=[N+]3C(=Cc4ccc(-c5cccs5)n4[B-]3(F)F)C=C2)cc1)C(N)=O` [Compound 31c, (S)-N1-(3-(((S)-1-Amino-6-(2-(4-((E)-2-(5,5-difluoro-7-(thiophen-2-yl)-5H-5λ^4,6λ^4-dipyrrolo[1,2-c:2’,1’-f][1,3,2]diazaborinin-3-yl)vinyl)phenoxy)acetamido)-1-oxohexan-2-yl)amino)-3-oxopropyl)-2-((S)-2-((2S,3R)-2-(3-(4-(2-benzylphenoxy)piperidin-1-yl)propanamido)-3-hydroxy-butanamido)-3-hydroxypropanamido)succinamide] ({Propanoyl(3-Pip(4-O-2-BnPh))}-TSN[βAla]K(X1)-NH2) the same measures were 6 nM and 8.20 ± 0.07.
For `CC(C)[C@H](NC(=O)CCN1CCC(Oc2ccccc2Cc2ccccc2)CC1)C(=O)N[C@@H](CO)C(=O)N[C@@H](Cc1ccc(O)cc1)C(=O)NCCC(=O)N[C@@H](CCCCNC(=O)COc1ccc(/C=C/C2=[N+]3C(=Cc4ccc(-c5cccs5)n4[B-]3(F)F)C=C2)cc1)C(N)=O` [Compound 31e, (S)-2-((6S,9S,12S)-16-(4-(2-Benzylphenoxy)piperidin-1-yl)-6-(4-hydroxybenzyl)-9-(hydroxymethyl)-12-isopropyl-5,8,11,14-tetraoxo-4,7,10,13-tetraazahexadecanamido)-6-(2-(4-((E)-2-(5,5-difluoro-7-(thiophen-2-yl)-5H-5λ^4,6λ^4-dipyrrolo[1,2-c:2’,1’-f][1,3,2]diazaborinin-3-yl)vinyl)phenoxy)acetamido)hexanamide] ({Propanoyl(3-Pip(4-O-2-BnPh))}-VSY[βAla]K(X1)-NH2) the same measures were 16 nM and 7.80 ± 0.11.
`Cc1cc(C)n2c1C=C1C=CC(CCC(=O)NCCCCCC(=O)NCCCC[C@H](NC(=O)CCNC(=O)[C@H](C)NC(=O)[C@H](C)NC(=O)[C@H](Cc3ccccc3)NC(=O)CCN3CCC(Oc4ccccc4Cc4ccccc4)CC3)C(N)=O)=[N+]1[B-]2(F)F` [Compound 39e, N-((5S,8S,11S,18S)-5-Benzyl-1-(4-(2-benzylphenoxy)piperidin-1-yl)-18-carbamoyl-8,11-dimethyl-3,6,9,12,16-pentaoxo-4,7,10,13,17-pentaazadocosan-22-yl)-6-(3-(5,5-difluoro-7,9-dimethyl-5H-4λ^4,5λ^4-dipyrrolo[1,2-c:2’,1’-f][1,3,2]diazaborinin-3-yl)propanamido)hexanamide] ({Propanoyl(3-Pip(4-O-2-BnPh))}-FAA[βAla]K([Ahx-BODIPY(FL)])-NH2) gave a Kd of 2690 nM and a pKD of 5.57 ± 0.05.
For `CC(C)[C@H](NC(=O)CCN1CCC(Oc2ccccc2Cc2ccccc2)CC1)C(=O)N[C@@H](CO)C(=O)N[C@@H](CC(N)=O)C(=O)N[C@@H](Cn1cc(COc2ccc(/C=C/C3=[N+]4C(=Cc5ccc(-c6cccs6)n5[B-]4(F)F)C=C3)cc2)nn1)C(N)=O` [Compound 22a, (S)-N1-((S)-1-Amino-3-(4-((4-((E)-2-(5,5-difluoro-7-(thiophen-2-yl)-5H-5λ^4,6λ^4-dipyrrolo[1,2-c:2’,1’-f][1,3,2]diazaborinin-3-yl)vinyl)phenoxy)methyl)-1H-1,2,3-triazol-1-yl)-1-oxopropan-2-yl)-2-((S)-2-((S)-2-(3-(4-(2-benzylphenoxy)piperidin-1-yl)propanamido)-3-methylbutanamido)-3-hydroxypropanamido)succinamide] the same measures were 28 nM and 7.55 ± 0.07.
On to `CC(C)[C@H](NC(=O)CCN1CCC(Oc2ccccc2Cc2ccccc2)CC1)C(=O)N[C@@H](CO)C(=O)N[C@@H](CC(N)=O)C(=O)NCCC(=O)N[C@@H](CCCn1cc(COc2ccc(/C=C/C3=[N+]4C(=Cc5ccc(-c6cccs6)n5[B-]4(F)F)C=C3)cc2)nn1)C(N)=O` [Compound 28a, (S)-N1-(3-(((S)-1-Amino-5-(4-((4-((E)-2-(5,5-difluoro-7-(thiophen-2-yl)-5H-5λ^4,6λ^4-dipyrrolo[1,2-c:2’,1’-f][1,3,2]diazaborinin-3-yl)vinyl)phenoxy)methyl)-1H-1,2,3-triazol-1-yl)-1-oxopentan-2-yl)amino)-3-oxopropyl)-2-((S)-2-((S)-2-(3-(4-(2-benzylphenoxy)piperidin-1-yl)propanamido)-3-methylbutanamido)-3-hydroxypropanamido)succinamide], for which the Kd was 20 nM and the pKD stood at 7.70 ± 0.05.
The molecule `C[C@H](NC(=O)[C@@H](NC(=O)CCN1CCC(Oc2ccccc2Cc2ccccc2)CC1)[C@@H](C)O)C(=O)N[C@@H](CC(N)=O)C(=O)NCCC(=O)N[C@@H](CCCCNC(=O)COc1ccc(/C=C/C2=[N+]3C(=Cc4ccc(-c5cccs5)n4[B-]3(F)F)C=C2)cc1)C(N)=O` [Compound 31d, (S)-N1-(3-(((S)-1-Amino-6-(2-(4-((E)-2-(5,5-difluoro-7-(thiophen-2-yl)-5H-5λ^4,6λ^4-dipyrrolo[1,2-c:2’,1’-f][1,3,2]diazaborinin-3-yl)vinyl)phenoxy)acetamido)-1-oxohexan-2-yl)amino)-3-oxopropyl)-2-((S)-2-((2S,3R)-2-(3-(4-(2-benzylphenoxy)piperidin-1-yl)propanamido)-3-hydroxybutanamido)propanamido)succinamide] ({Propanoyl(3-Pip(4-O-2-BnPh))}-TAN[βAla]K(X1)-NH2) displayed a Kd of 5 nM and a pKD of 8.29 ± 0.07.
For `CC(C)[C@H](NC(=O)CCN1CCC(Oc2ccccc2Cc2ccccc2)CC1)C(=O)N[C@@H](C)C(=O)N[C@@H](CC(N)=O)C(=O)NCCC(=O)N[C@@H](CCCCNC(=O)COc1ccc(/C=C/C2=[N+]3C(=Cc4ccc(-c5cccs5)n4[B-]3(F)F)C=C2)cc1)C(N)=O` [Compound 31b, (S)-N1-(3-(((S)-1-Amino-6-(2-(4-((E)-2-(5,5-difluoro-7-(thiophen-2-yl)-5H-5λ^4,6λ^4-dipyrrolo[1,2-c:2’,1’-f][1,3,2]diazaborinin-3-yl)vinyl)phenoxy)acetamido)-1-oxohexan-2-yl)amino)-3-oxopropyl)-2-((S)-2-((S)-2-(3-(4-(2-benz-ylphenoxy)piperidin-1-yl)propanamido)-3-methylbutanamido)propanamido)succinamide] ({Propanoyl(3-Pip(4-O-2-BnPh))}-VAN[βAla]K(X1)-NH2) the same measures were 5 nM and 8.34 ± 0.09.
The molecule `C[C@H](NC(=O)CCN1CCC(Oc2ccccc2Cc2ccccc2)CC1)C(=O)N[C@@H](C)C(=O)N[C@@H](C)C(=O)NCCC(=O)N[C@@H](CCCn1cc(COc2ccc(/C=C/C3=[N+]4C(=Cc5ccc(-c6cccs6)n5[B-]4(F)F)C=C3)cc2)nn1)C(N)=O` [Compound 28b, (S)-2-((6S,9S,12S)-16-(4-(2-Benzylphenoxy)piperidin-1-yl)-6,9,12-trimethyl-5,8,11,14-tetraoxo-4,7,10,13-tetraazahexadecanamido)-5-(4-((4-((E)-2-(5,5-difluoro-7-(thiophen-2-yl)-5H-5λ^4,6λ^4-dipyrrolo[1,2-c:2’,1’-f][1,3,2]diazaborinin-3-yl)vinyl)phenoxy)methyl)-1H-1,2,3-triazol-1-yl)pentanamide] had a Kd of 14 nM and a negative-log KD (pKD) of 7.86 ± 0.06.
For `CC(C)[C@H](NC(=O)CCN1CCC(Oc2ccccc2Cc2ccccc2)CC1)C(=O)N[C@@H](C)C(=O)N[C@@H](Cc1ccc(O)cc1)C(=O)NCCC(=O)N[C@@H](CCCCNC(=O)COc1ccc(/C=C/C2=[N+]3C(=Cc4ccc(-c5cccs5)n4[B-]3(F)F)C=C2)cc1)C(N)=O` [Compound 31f, (S)-2-((6S,9S,12S)-16-(4-(2-Benzylphenoxy)piperidin-1-yl)-6-(4-hydroxybenzyl)-12-isopropyl-9-methyl-5,8,11,14-tetraoxo-4,7,10,13-tetraazahexadecanamido)-6-(2-(4-((E)-2-(5,5-difluoro-7-(thiophen-2-yl)-5H-5λ^4,6λ^4-di-pyrrolo[1,2-c:2’,1’-f][1,3,2]diazaborinin-3-yl)vinyl)phenoxy)acetamido)hexanamide] ({Propanoyl(3-Pip(4-O-2-BnPh))}-VAY[βAla]K(X1)-NH2) the same measures were 11 nM and 7.96 ± 0.11.

For the origin of these results see article PMC9234962, “Optimization of Peptide Linker-Based Fluorescent Ligands for the Histamine H1 Receptor” (Journal of Medicinal Chemistry, 2022).
